Results reported in patent US5464865A, “4-aryl- and 4-arylthio-5-hydroxy-2(5H)-furanones as inhibitors of phospholipase A2” (Ortho Pharmaceutical Corporation, priority 1993, dated 1995).

Key:
[1] = biological target: T1, human platelet phospholipase A2 (Homo sapiens, UniProt P14555); test: Inhibition of human platelet phospholipase A2 (14C-oleate E. coli substrate); assay type: biochemical; conditions: for IC50: pH 7.0, 37°, 60 min incubation, read-out: Inhibition of PLA2, IC50; for inhibition at 50 µM: read-out: Inhibition of PLA2, % Inhibition @ 50 μM; for inhibition at 10 µM: @ 10 μM (values marked *), read-out: Inhibition of PLA2, % Inhibition @ *10 μM
T1 construct: a preparation of human platelet phospholipase A2; from tissue; host or cells: human platelets
T1 sequence (P14555 21-144): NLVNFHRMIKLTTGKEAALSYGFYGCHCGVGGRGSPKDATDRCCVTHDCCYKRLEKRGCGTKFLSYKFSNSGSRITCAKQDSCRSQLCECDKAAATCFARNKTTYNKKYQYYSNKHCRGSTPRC
Experimental: The activity of the compounds of the invention against phospholipase A2 is determined using a preparation of human platelet phospholipase A2 with a specific activity of 180 nmol/min/mg as the enzyme source. Polypropylene 15-ml test tubes are utilized as the reaction vessels. All drug samples are run in duplicate, with "blank" and "control" (no test compound) groups run in triplicate. […] Test compounds are dissolved in DMSO, and diluted to a projected final concentration of either 50 or 10 μM in 550 μl HEPES buffer at pH 7.0. A 1:7 dilution of human platelet PLA2 in HEPES buffer (5 μl) is added to each test tube, followed by gentle vortexing for 3 seconds. The reaction tubes containing drug, buffer, and enzyme are preincubated for 15 min at 37°, followed by the addition of 25 μl of ^14 C-oleate E. coli substrate. Details regarding this substrate may be found in a publication by S. Ghosh and R. Franson, Biochem. Cell. Biol., 70, 43 (1992), and references therein.
The tubes are immediately vortexed at moderate speed for 3 sec, followed by a 60 min incubation at 37° in a shaking water bath. The reaction is stopped by the addition of 3 ml of a 1:2 chloroform-methanol mixture. Additional water (1.5 ml) and chloroform (1.0 ml) are added, followed by vortexing. The lower phase is removed with a polypropylene transfer pipette, and transferred to a 13×100 mm polypropylene test tube. The organic solvent is evaporated with a stream of nitrogen, the residue is redissolved in 30 μl of a 9:1 chloroform-methanol mixture, and the solution is spotted on a channeled polyester-backed silica gel TLC plate, such as those available under the trade name PE SIL G available from Whatman Inc, Clifton, N.J.
The plate is developed with an 80:20:1 mixture of petroleum ether-diethyl ether-acetic acid. […] The plate is scored above the origin, cut along the score with scissors, and the reactant (origin) and product portions of each channel are put into separate scintillation vials. To each vial is added a scintillation cocktail (15 ml), preferably that sold under the trademark ECOLUME by ICN Biomedicals, Irvine Calif. The vials are shaken vigorously for 5 sec, and the radioactive ^14 C in each vial is measured with a scintillation counter, which provides the counts-per-minute (cpm) for each sample. The obtained cpm values are corrected for the "blank" values.
The percentage of phospholipid hydrolyzed is calculated by the formula:
Phospholipid converted=100×cpm products / (cpm products+cpm
The inhibition of phospholipase A2 by the test compounds is expressed as a percent inhibition relative to the control group:
% Inhibition=[…]

[2] = tested on: TPA-induced inflammation in the mouse ear; test: Topical anti-inflammatory activity: TPA-induced inflammation (edema) in the mouse ear; assay type: in vivo, mouse (male CD-1); conditions: for inhibition in vivo at 100 µg/ear: Mus musculus, @ 100 μg, 5-6 h after TPA; for Inhibition of ear edema, IC50: multiple-dose experiment, dose for 50% inhibition of weight gain
Experimental: The topical anti-inflammatory activity of the compounds is determined by measuring the degree of inhibition of TPA-induced inflammation in the mouse ear, using essentially the procedure of C. Van Arman, Clin. Pharmacol. Ther., 16, 900 (1974). Male CD-1 mice are used at seven to nine weeks of age. 12-O-tetradecanoylphorbol acetate ([…] in 20 μl of acetone) is dispensed onto the dorsum of the left ear of each mouse, and the right ear is left untreated. Ten mice so treated serve as the control group. […]
After five to six hours, the animals are sacrificed by CO2 inhalation, the ears are removed, and 7 mm circular punch biopsies of are taken from each ear and weighed. The difference in biopsy weight between treated and untreated ears is determined, and the degree of anti-inflammatory activity is expressed in terms of the percent inhibition of ear weight increase relative to the control group. In multiple-dose experiments, varying amounts of the compound to be tested are applied along with the TPA and the results are expressed as the ED50, the dose at which a 50% inhibition of weight gain is observed.

Structure (SMILES)	IC50 [1]	inhibition at 50 µM [1]	Inhibition of ear edema, IC50 [2]	inhibition at 10 µM [1]	inhibition in vivo at 100 µg/ear [2]
C=CCCCCCCCCC(=O)c1ccc(C2=CC(=O)OC2O)cc1 (stereo not shown) [Example 28, 5-Hydroxy-4-(4-(1-oxoundec-10-en-1-yl)phenyl)-2(5H)-furanone]	9 µM	86%			0%
O=C1C=C(c2ccc(OCCOc3ccc4ccccc4c3)cc2)C(O)O1 (stereo not shown) [Example 12, 5-Hydroxy-4-[4-(2-(2-naphthyloxy)ethoxy)phenyl]-2(5H)furanone]		47%			45%
CCCCCCCCOc1ccc(C2=CC(=O)OC2O)cc1 (stereo not shown) [Example 1, 5-Hydroxy-4-(4-octyloxyphenyl)-2(5H)furanone]	14 µM	91%	300 µg		56%
CCCCC/C=C\C/C=C\CCCCCCCCOc1cccc(C2=CC(=O)OC2O)c1 (stereo not shown) [Example 40, (Z,Z)-5-Hydroxy-4-((3-(octadeca-9,12-dienyl)oxy)phenyl)-2(5H)-furanone]	7 µM	100%			80%
O=C1C=C(c2ccc(C#Cc3ccccc3)cc2)C(O)O1 (stereo not shown) [Example 55, 5-Hydroxy-4-(4-(2-phenylethynyl)phenyl)-2(5H)-furanone]	19 µM	67%	37 µg		79%
C=CC(CCCCC)Oc1ccc(C2=CC(=O)OC2O)cc1 (stereo not shown) [Example 37, 5-Hydroxy-4-(4-((1-ethenylhexyl)oxy)phenyl)-2(5H)-furanone]	20 µM	93%			34%
CC(C)=CCC/C(C)=C/CSc1ccc(C2=CC(=O)OC2O)cc1 (stereo not shown) [Example 23, (E)-5-Hydroxy-4-(4-(3,7-dimethyl-2,6-octadienyl)thio)phenyl-2(5H)furanone]	8 µM	78%			56%
CC1=C(C/C=C(\C)CSc2ccc(C3=CC(=O)OC3O)cc2)C(C)(C)CCC1 (stereo not shown) [Example 18, (E)-5-Hydroxy-4-(4-(2-methyl-4-(2,6,6-trimethyl-1-cyclohexen-1-yl)-2-butenylthio)phenyl)-2(5H)-furanone]		75%	28 µg		70%
CCCCC/C=C/Cc1cc(C2=CC(=O)OC2O)ccc1O (stereo not shown) [Example 38, (E)-5-Hydroxy-4-(4-hydroxy-3-(2-octenyl)phenyl)-2(5H)-furanone]		85%	27 µg		78%
CCCCCCCCNS(=O)(=O)c1ccc(C2=CC(=O)OC2O)cc1 (stereo not shown) [Example 45, 5-Hydroxy-4-(4-(octylaminosulfonyl)phenyl)-2(5H)-furanone]		13%			
CCCCCCCC(=O)Nc1ccc(C2=CC(=O)OC2O)cc1 (stereo not shown) [Example 21, 5-Hydroxy-4-(4-(1-oxooctylamino)phenyl)-2(5H)furanone]		0%			
CCCCCCCCOc1cccc(C2=CC(=O)OC2O)c1 (stereo not shown) [Example 3, 5-Hydroxy-4-(3-octyloxyphenyl)-2(5H)furanone]		39%			
CCCCCCCCN(C(C)=O)c1ccc(C2=CC(=O)OC2O)cc1 (stereo not shown) [Example 25, 5-Hydroxy-4-(4-(N-acetyl-N-octylamino)phenyl)-2(5H)furanone]				40%	
CCCCCOc1ccc(SC2=CC(=O)OC2O)cc1 (stereo not shown) [Example 66, 5-Hydroxy-4-(4-(pentyloxy)phenylthio)-2(5H)-furanone]				48%	

More lines, main results first:

IC50 [1]	inhibition at 50 µM [1]	Inhibition of ear edema, IC50 [2]	inhibition at 10 µM [1]	Structure (SMILES)	inhibition in vivo at 100 µg/ear [2]
22 µM	73%			O=C1C=C(c2ccc(OCCCCCCOc3ccc4ccccc4c3)cc2)C(O)O1 (stereo not shown) [Example 13, 5-Hydroxy-4-[4-(6-(2-naphthyloxy)hexyloxy)phenyl]-2(5H)furanone]	0%
	90%			O=C1C=C(c2ccc(OCc3ccc(C#Cc4ccccc4)cc3)cc2)C(O)O1 (stereo not shown) [Example 44, 5-Hydroxy-4-(4-((4-(2-phenylethynyl)phenyl)methoxy)phenyl)-2(5H)-furanone]	43%
20 µM	95%	94 µg		CC1=C(CCC(C)Oc2ccc(C3=CC(=O)OC3O)cc2)C(C)(C)CCC1 (stereo not shown) [Example 39, (E)-5-Hydroxy-4-(4-((1-methyl-3-(2,6,6-trimethyl-1-cyclohexen-1-yl)propyl)oxy)phenyl)-2(5H)-furanone]	48%
5 µM	96%			CCCCCCCCOc1ccc(SC2=CC(=O)OC2O)cc1 (stereo not shown) [Example 64, 5-Hydroxy-4-(4-(octyloxy)phenylthio)-2(5H)-furanone]	48%
	0%			C=CCc1ccc(C2=CC(=O)OC2O)cc1O (stereo not shown) [Example 41, 5-Hydroxy-4-(3-hydroxy-4-(2-propenyl)phenyl)-2(5H)-furanone]	64%
30 µM	91%			O=C1C=C(c2ccc(/C=C/c3ccccc3)cc2)C(O)O1 (single isomer, unassigned) [Example 34, (E)-5-Hydroxy-4-(4-(2-phenylethenyl)phenyl)-2(5H)-furanone]	33%
	87%			CC1=C(CCCC/C=C(\C)COc2ccc(C3=CC(=O)OC3O)cc2)C(C)(C)CCC1 (stereo not shown) [Example 14, (E)-5-Hydroxy-4-(4-(2-methyl-7-(2,6,6-trimethyl-1-cyclohexen-1-yl)-2-heptenyloxy)phenyl)-2(5H)-furanone]	4%
24 µM	84%			O=C1C=C(c2ccc(/C=C/CCc3ccccc3)cc2)C(O)O1 (stereo not shown) [Example 36, (E)-5-Hydroxy-4-(4-(4-phenyl-1-butenyl)phenyl)-2(5H)-furanone]	37%
9 µM	100%	106 µg		CC1=C(C/C=C(\C)COc2ccc(C3=CC(=O)OC3O)cc2)C(C)(C)CCC1 (stereo not shown) [Example 16, (E)-5-Hydroxy-4-(4-(2-methyl-4-(2,6,6-trimethyl-1-cyclohexen-1-yl)-2-butenyloxy)phenyl)-2(5H)-furanone]	43%
7 µM	92%	80 µg		O=C1C=C(c2ccc(C(=O)/C=C/c3ccc4ccccc4c3)cc2)C(O)O1 (stereo not shown) [Example 30, (E)-5-Hydroxy-4-(4-(3-(2-naphthyl)-1-oxo-2-propenyl)phenyl)-2(5H)-furanone]	66%
8 µM	100%	87 µg		CC1=C(C/C=C(\C)COc2cccc(C3=CC(=O)OC3O)c2)C(C)(C)CCC1 (stereo not shown) [Example 17, (E)-5-Hydroxy-4-(3-(2-methyl-4-(2,6,6-trimethyl-1-cyclohexen-1-yl)-2-butenyloxy)phenyl)-2(5H)-furanone]	51%
50 µM	52%			O=C1C=C(c2ccc(Oc3ccc4ccccc4c3)cc2)C(O)O1 (stereo not shown) [Example 50, 5-Hydroxy-4-(4-(2-naphthyloxy)phenyl)-2(5H)-furanone]	
			58%	CCCCCCCCOc1ccc(C2=CC(=O)OC2O)c(OC)c1 (stereo not shown) [Example 5, 5-Hydroxy-4-(2-methoxy-4-octyloxyphenyl)-2(5H)furanone]	
